Assay results reported in patent US5348965A, “N-substituted azaheterocyclic carboxylic acids” (Novo Nordisk A/S, priority 1991, dated 1994).
Where a name gives a salt, the structure may show the parent alone.

What was measured:
[1] = tested on: GABA uptake; details: oral; Yunger et al., J. Pharm. Exp. Ther. 1984, 228, 109; cited from earlier work
[2] = tested on: [^3 H]-GABA uptake; experiment: in vitro inhibition of [^3 H]-GABA uptake (method of Fjalland); assay type: biochemical; details: Male wistar rat cortical tissue homogenate; tris HCl buffer pH 7.5; 60 minutes at 30° C.
Protocol: Values for in vitro inhibition of [^3 H]-GABA uptake for the invention compounds were assessed essentially by the method of Fjalland (Acta Pharmacol. Toxicol. 1978, 42, 73-76). Male wistar rat cortical tissue was gently homogenized by hand using a glass/PTFE homogenizer in 10 volumes of 0.32 M sucrose. Incubation was performed in a 40 mM tris HCl buffer (pH 7.5 at 30° C.) containing […], 4 mM MgSO4, […] and 10 mM glucose, for 60 minutes at 30° C. Values for inhibition of GABA uptake for some representative compounds are recorded in Table I.

[3] = tested on: GABA uptake; details: from the synaptic cleft into presynaptic nerve terminals and glial cells; cited from earlier work

O=C(O)C1=CCCN(CCC=C(c2ccccc2)c2ccccc2)C1 [SK&F 100330A, N-(4,4-diphenyl-3-buten-1-yl)guvacine]
orally active inhibition of GABA uptake [1]: orally active inhibitors of GABA uptake

O=C(O)[C@@H]1CCCN(CCCOCC=C2c3ccccc3CCc3ccccc32)C1 [Example 5, (R)-N-(3-(2-(10,11-Dihydro-5H-dibenzo[a,d]cyclohepten-5-ylidene)ethoxy)-1-propyl)-3-piperidinecarboxylic acid hydrochloride]
IC50 [2]: 900 nM

O=C(O)C1CCCNC1 (centres unmarked) [3-piperidinecarboxylic acid]
inhibition of GABA uptake [3]: potent inhibitor of GABA uptake

O=C(O)[C@@H]1CCCN(CCOCCN2c3ccccc3CCc3ccccc32)C1 [Example 1, (R)-N-(2-(2-(10,11-Dihydro-5H-dibenz[b,f]azepin-5-yl)ethoxy)ethyl)-3-piperidinecarboxylic acid hydrochloride]
IC50 [2]: 222 nM

O=C(O)[C@@H]1CCCN(CCOCC=C2c3ccccc3CCc3ccccc32)C1 [Example 3, (R)-N-(2-(2-(10,11-Dihydro-5H-dibenzo[a,d]cyclohepten-5-ylidene)ethoxy)ethyl)-3-piperidinecarboxylic acid hydrochloride]
IC50 [2]: 754 nM

O=C(O)[C@@H]1CCCN(CCOCCN2c3ccccc3Sc3ccc(Cl)cc32)C1 [Example 2c, (R)-N-(2-(2-(2-Chloro-10H-phenothiazin-10-yl)ethoxy)ethyl)-3-piperidinecarboxylic acid hydrochloride]
IC50 [2]: 119 nM

O=C(O)[C@@H]1CCCN(CCON=C2c3ccccc3CCc3ccccc32)C1 [Example 7, (R)-N-(2-(((10,11-Dihydro-5H-dibenzo[a,d]cyclohepten-5-ylidene)amino)oxy)ethyl)-3-piperidinecarboxylic acid hydrochloride]
IC50 [2]: 1130 nM

O=C(O)C1CCCN(CCC=C(c2ccccc2)c2cccs2)C1 (centres unmarked) [SK&F 100604J, N-(4-phenyl-4-(2-thienyl)-3-buten-1-yl)nipecotic acid]
orally active inhibition of GABA uptake [1]: orally active inhibitors of GABA uptake

O=C(O)[C@@H]1CCCN(CCOCCN2c3ccccc3Sc3ccccc32)C1 [Example 2a, (R)-N-(2-(2-(10H-Phenothiazin-10-yl)ethoxy)ethyl)-3-piperidinecarboxylic acid hydrochloride]
IC50 [2]: 306 nM

O=C(O)CC1CCN(CCC=C(c2ccccc2)c2ccccc2)C1 (stereo not drawn) [SK&F 100561, N-(4,4-diphenyl-3-buten-1-yl)-homo-β-proline]
orally active inhibition of GABA uptake [1]: orally active inhibitors of GABA uptake

O=C(O)C1CCCN(CCC=C(c2ccccc2)c2ccccc2)C1 (centres unmarked) [SK&F 89976A, N-(4,4-diphenyl-3-buten-1-yl)nipecotic acid]
orally active inhibition of GABA uptake [1]: orally active inhibitors of GABA uptake
